Columns and labels:
human MCH-1 receptor = human MCH-1 receptor (Homo sapiens (Human), UniProt Q99705); assay: Binding Assay for Human Melanin-Concentrating Hormone (MCH-1) Receptor (radioligand displacement, CHO-K1 membranes); details: membranes from CHO-K1 cells expressing human MCH1 receptor; [3H]-labeled radioligand; Ki from IC50 by Cheng Prusoff; read-out: MCH-1 Ki
Protocol: Evaluation of the affinity of compounds for the human MCH-1 receptor was accomplished using 4-(3,4,5-tritritiumbenzyloxy)-1-(1-(2-(pyrrolidin-1-yl)ethyl)-1H-indazol-5-yl)pyridin-2(1H)-one and membranes prepared from stable CHO-K1 cells expressing the human MCH1 receptor obtained from Euroscreen (Batch 1138). Cell membrane homogenates (8.92 μg protein) were incubated for 60 min at 25° C. with […] of the [^3H]-labeled compound in the absence or presence of the test compound in 50 mM Tris-HCl buffer, pH 7.4. Nonspecific binding was determined in the presence of 50 μM 1-(5-(4-cyanophenyl)bicyclo[3.1.0]hexan-2-yl)-3-(4-fluoro-3-(trifluoromethyl)phenyl)-1-(3-(4-methylpiperazin-1-yl)propyl)urea. Following incubation, the samples were filtered rapidly under vacuum through Skatron 11731 filters, pre-soaked in 0.5% polyethylenimine, and washed with ice-cold 50 mM Tris-HCl buffer, pH 7.4, (wash setting 9,9,0) using a Skatron cell harvester. The filters were counted for radioactivity in a liquid scintillation counter (Tri-Carb 2100TR, Packard) using a scintillation cocktail (Ultima Gold MV, Perkin Elmer).
The results are expressed as a percent inhibition of the control radioligand specific binding. The IC50 value (concentration causing a half-maximal inhibition of control specific binding) and Hill coefficient (nH) were determined by non-linear regression analysis of the competition curve using Hill equation curve fitting. The inhibition constant (Ki) was calculated from the Cheng Prusoff equation: (Ki=IC50/(1+(L/KD)), where L=concentration of radioligand in the assay, and KD=affinity of the radioligand for the receptor.

Chain of human MCH-1 receptor (Q99705 whole entry): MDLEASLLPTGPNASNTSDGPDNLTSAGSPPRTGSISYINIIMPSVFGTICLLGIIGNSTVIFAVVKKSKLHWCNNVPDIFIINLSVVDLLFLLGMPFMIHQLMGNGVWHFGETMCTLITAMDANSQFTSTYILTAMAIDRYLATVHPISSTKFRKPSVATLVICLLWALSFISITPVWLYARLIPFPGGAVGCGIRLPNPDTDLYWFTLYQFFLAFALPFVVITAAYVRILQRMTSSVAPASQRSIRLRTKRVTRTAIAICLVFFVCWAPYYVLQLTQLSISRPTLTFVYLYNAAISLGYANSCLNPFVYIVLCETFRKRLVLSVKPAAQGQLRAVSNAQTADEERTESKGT

Row | SMILES | Ki (human MCH-1 receptor) | melting point
1 | CC(=O)N1C2CCC1c1c(n(C)c3cc(-n4ccc(OCc5ccccc5)cc4=O)ccc13)C2 (centres unmarked) [Example 27, 1-(11-Acetyl-5-methyl-5,6,7,8,9,10-hexahydro-7,10-iminocyclohept[b]indol-3-yl)-4-(benzyloxy)pyridin-2(1H)-one] | 131 nM | 91 to 96 °C
2 | CN1C2CCCC1c1c(n(C)c3cc(-n4ccc(OCc5ccccc5)cc4=O)ccc13)C2.Cl (centres unmarked) [Example 31, 4-(Benzyloxy)-1-(5,12-dimethyl-6,7,8,9,10,11-hexahydro-7,11-imino-5H-cyclooct[b]indol-3-yl)pyridin-2(1H)-one hydrochloride] | 14 nM | 161 to 180 °C
3 | Cl.Cn1c2c(c3ccc(-n4ccc(OCc5ccc(F)cn5)cc4=O)nc31)C1CCCC(C2)N1 (centres unmarked) [Example 40, 4-((5-Fluoropyridin-2-yl)methoxy)-1-(11-methyl-5,6,7,8,9,10-hexahydro-5,9-imino-11H-cycloocta[4,5]pyrrolo[2,3-b]pyridin-2-yl)pyridin-2(1H)-one hydrochloride] | 49 nM | 170 to 180 °C
4 | Cl.Cn1c2c(c3ccc(-n4ccc(OCc5ccccc5)cc4=O)nc31)C1CCCC(C2)N1 (centres unmarked) [Example 41, 4-(Benzyloxy)-1-(11-methyl-5,6,7,8,9,10-hexahydro-5,9-imino-11H-cycloocta[4,5]pyrrolo[2,3-b]pyridin-2-yl)pyridin-2(1H)-one hydrochloride] | 30 nM | 191 to 206 °C
